Values quoted from earlier work as cited in US4027039A (priority 1975, dated 1977).

System: Influenza A PR8 virus
Design: toxicity at upper limit: dose or concentration left out as unconfirmed
Conditions: cited from earlier work

CC(C=NNC(=N)N)=NNC(=N)N [Methylgloxal-bis-guanylhydrazone]
toxicity at upper limit: toxic
inhibition (lower limit, 0.125 mg per ml): Ninety
